Laboratory results reported in ChEMBL document CHEMBL1201862, “PubChem BioAssay data set” (2004).
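How tested: cells in 96-well plates exposed to compound for 48 hours at five concentrations. At the GI50, growth is halved.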 The source made the active and inactive calls. No stated cut-off is given here; in the data, active = GI50 up to about 1.1 µM and inactive = higher.

Experiments:
Assay in all cases: DTP human tumour cell line panel, 48 h
BT-549 = tested on: BT-549
U-251 = tested on: U-251
OVCAR-8 = tested on: OVCAR-8
OVCAR-3 = tested on: OVCAR-3
IGROV-1 = tested on: IGROV-1
HCC 2998 = tested on: HCC 2998
MDA-MB-435 = tested on: MDA-MB-435
MDA-MB-231 = tested on: MDA-MB-231
HOP-62 = tested on: HOP-62
SK-MEL-2 = tested on: SK-MEL-2
HL-60 = tested on: HL-60
NCI-H460 = tested on: NCI-H460
HCT-116 = tested on: HCT-116
EKVX = tested on: EKVX
SNB-19 = tested on: SNB-19
KM12 = tested on: KM12
HT-29 = tested on: HT-29
TK-10 = tested on: TK-10
NCI/ADR-RES = tested on: NCI/ADR-RES
HOP-92 = tested on: HOP-92

SMILES | GI50 (BT-549) | GI50 (U-251) | GI50 (OVCAR-8) | GI50 (OVCAR-3) | GI50 (IGROV-1) | GI50 (HCC 2998) | GI50 (MDA-MB-435) | GI50 (MDA-MB-231) | GI50 (HOP-62) | GI50 (SK-MEL-2) | GI50 (HL-60) | GI50 (NCI-H460) | GI50 (HCT-116) | GI50 (EKVX) | GI50 (SNB-19) | GI50 (KM12) | GI50 (HT-29) | GI50 (TK-10) | GI50 (NCI/ADR-RES) | GI50 (HOP-92)
COc1ccc2c(c1)c(=O)c1c(NCCCN(C)CCCNc3ccc4c(=O)n(CCN(C)C)c(=O)n5c6ccc(OC)cc6c(=O)c3c45)ccc3c(=O)n(CCN(C)C)c(=O)n2c31 | 0.259 µM (active) | < 0.01 µM (active) | < 0.01 µM (active) | 0.138 µM (active) | < 0.01 µM (active) | < 0.01 µM (active) | < 0.0149 µM (active) | 0.0614 µM (active) | < 0.036 µM (active) | 0.514 µM (active) | 0.0914 µM (active) | < 0.01 µM (active) | < 0.01 µM (active) | 0.188 µM (active) | < 0.01 µM (active) | < 0.01 µM (active) | < 0.01 µM (active) | 0.119 µM (active) | – | –
CCOP(=O)(CN1CCNCCN(CP(=O)(OCC)OCC)CC1)OCC | > 100 µM (inactive) | > 100 µM (inactive) | > 100 µM (inactive) | > 100 µM (inactive) | > 100 µM (inactive) | – | > 100 µM (inactive) | > 100 µM (inactive) | > 100 µM (inactive) | > 100 µM (inactive) | – | > 100 µM (inactive) | > 100 µM (inactive) | > 100 µM (inactive) | > 100 µM (inactive) | > 100 µM (inactive) | > 100 µM (inactive) | > 100 µM (inactive) | > 100 µM (inactive) | > 100 µM (inactive)
COc1cc(NC(C)=O)ccc1C(=O)N/N=C/c1ccc(Cl)cc1Cl | > 100 µM (inactive) | – | 48.9 µM (inactive) | 52.8 µM (inactive) | 30.2 µM (inactive) | 57.1 µM (inactive) | 19.6 µM (inactive) | – | 29.6 µM (inactive) | 19.2 µM (inactive) | 46.6 µM (inactive) | – | 80.5 µM (inactive) | 32.7 µM (inactive) | 42.8 µM (inactive) | 33 µM (inactive) | > 100 µM (inactive) | – | > 100 µM (inactive) | 35.4 µM (inactive)
CCOC(=O)c1c(-c2ccc(Cl)cc2)c(C#N)c(=S)n(C2OC(COC(C)=O)C(OC(C)=O)C(OC(C)=O)C2OC(C)=O)c1C (centres undefined) | – | > 100 µM (inactive) | > 100 µM (inactive) | > 100 µM (inactive) | > 100 µM (inactive) | > 100 µM (inactive) | > 100 µM (inactive) | > 100 µM (inactive) | > 100 µM (inactive) | 1.77 µM (inactive) | > 100 µM (inactive) | > 100 µM (inactive) | > 100 µM (inactive) | > 100 µM (inactive) | > 100 µM (inactive) | > 100 µM (inactive) | > 100 µM (inactive) | > 100 µM (inactive) | > 100 µM (inactive) | 0.125 µM (active)
Cc1nc2nn[nH]n2c(=O)c1CCO | – | > 100 µM (inactive) | > 100 µM (inactive) | > 100 µM (inactive) | > 100 µM (inactive) | > 100 µM (inactive) | > 100 µM (inactive) | > 100 µM (inactive) | > 100 µM (inactive) | > 100 µM (inactive) | > 100 µM (inactive) | > 100 µM (inactive) | > 100 µM (inactive) | > 100 µM (inactive) | > 100 µM (inactive) | > 100 µM (inactive) | > 100 µM (inactive) | > 100 µM (inactive) | > 100 µM (inactive) | > 100 µM (inactive)
CCOC(=O)C1C(c2ccc3c(c2)OCO3)c2c(n[nH]c2O)CC1(O)OCC (centres undefined) | – | > 100 µM (inactive) | > 100 µM (inactive) | > 100 µM (inactive) | > 100 µM (inactive) | > 100 µM (inactive) | > 100 µM (inactive) | > 100 µM (inactive) | > 100 µM (inactive) | > 100 µM (inactive) | > 100 µM (inactive) | > 100 µM (inactive) | > 100 µM (inactive) | > 100 µM (inactive) | > 10 µM (inactive) | > 100 µM (inactive) | > 100 µM (inactive) | > 100 µM (inactive) | > 100 µM (inactive) | > 100 µM (inactive)
Cc1ccc(Nc2sc(C)cc2C#N)c([N+](=O)[O-])c1 | > 100 µM (inactive) | > 100 µM (inactive) | > 100 µM (inactive) | > 100 µM (inactive) | – | > 100 µM (inactive) | > 100 µM (inactive) | > 100 µM (inactive) | > 100 µM (inactive) | – | – | > 100 µM (inactive) | > 100 µM (inactive) | > 100 µM (inactive) | > 100 µM (inactive) | 93.5 µM (inactive) | – | – | 98.9 µM (inactive) | 88.9 µM (inactive)
CC(C)/C(Cl)=N\OC(=O)Nc1ccccc1F | 14.3 µM (inactive) | 17.3 µM (inactive) | 17.2 µM (inactive) | 17.7 µM (inactive) | 17.7 µM (inactive) | 14.9 µM (inactive) | – | 8.81 µM (inactive) | > 41.1 µM (inactive) | 18.1 µM (inactive) | 1.68 µM (inactive) | 18.7 µM (inactive) | 8.45 µM (inactive) | 16.9 µM (inactive) | > 42.9 µM (inactive) | 20.8 µM (inactive) | 24.3 µM (inactive) | 14.5 µM (inactive) | 15.2 µM (inactive) | 2.16 µM (inactive)
O=C(CC(O)(C(F)(F)F)C(F)(F)Cl)CC(O)(C(F)(F)F)C(F)(F)Cl (centres undefined) | – | 1.88 µM (inactive) | 2.88 µM (inactive) | 1.62 µM (inactive) | 2.47 µM (inactive) | 3.04 µM (inactive) | 2.19 µM (inactive) | 2.05 µM (inactive) | 2.09 µM (inactive) | 1.59 µM (inactive) | 2.99 µM (inactive) | 1.64 µM (inactive) | 1.67 µM (inactive) | 2.37 µM (inactive) | 2.22 µM (inactive) | 3.09 µM (inactive) | 2.33 µM (inactive) | 3.08 µM (inactive) | 2.58 µM (inactive) | 1.71 µM (inactive)
Cc1ncc(CSC(=N)N)n1Cc1ccccc1 | > 100 µM (inactive) | > 100 µM (inactive) | > 100 µM (inactive) | 51.6 µM (inactive) | > 100 µM (inactive) | – | 30.7 µM (inactive) | > 100 µM (inactive) | > 100 µM (inactive) | > 100 µM (inactive) | – | 88.3 µM (inactive) | 42.2 µM (inactive) | 96.8 µM (inactive) | > 100 µM (inactive) | > 100 µM (inactive) | 55.8 µM (inactive) | 25.8 µM (inactive) | > 100 µM (inactive) | > 100 µM (inactive)
S=C(Nc1ccc(Cl)cc1)c1ccc(CN2CCCCC2)s1 | 8.26 µM (inactive) | 10.1 µM (inactive) | 4.22 µM (inactive) | 31.1 µM (inactive) | 2.86 µM (inactive) | 7.16 µM (inactive) | 4.03 µM (inactive) | – | – | 25.1 µM (inactive) | 1.81 µM (inactive) | 4.62 µM (inactive) | 1.8 µM (inactive) | 12.3 µM (inactive) | – | 5.43 µM (inactive) | 3.5 µM (inactive) | – | 16.8 µM (inactive) | –
CCn1c(=O)ccc2ccc(N(CCO)CCO)nc21 | > 100 µM (inactive) | > 100 µM (inactive) | > 100 µM (inactive) | > 100 µM (inactive) | > 100 µM (inactive) | > 100 µM (inactive) | > 100 µM (inactive) | > 100 µM (inactive) | > 100 µM (inactive) | > 100 µM (inactive) | – | > 100 µM (inactive) | > 100 µM (inactive) | > 100 µM (inactive) | > 100 µM (inactive) | > 100 µM (inactive) | > 100 µM (inactive) | > 100 µM (inactive) | > 100 µM (inactive) | –
CCOC(=O)c1nnsc1NC(=O)Nc1ccc(Cc2ccc(NC(=O)Nc3snnc3C(=O)OCC)cc2)cc1 | > 100 µM (inactive) | 31.3 µM (inactive) | 27.5 µM (inactive) | > 100 µM (inactive) | 28.2 µM (inactive) | > 100 µM (inactive) | 93.1 µM (inactive) | 28.2 µM (inactive) | 32.7 µM (inactive) | > 100 µM (inactive) | – | 25.6 µM (inactive) | 30.8 µM (inactive) | 85.3 µM (inactive) | 39.1 µM (inactive) | 55.1 µM (inactive) | 61 µM (inactive) | > 100 µM (inactive) | > 100 µM (inactive) | –
COC1(C)Cc2c(c(C)c(O)c3c2C(=O)C=C(Cl)C3=O)O1 (centres undefined) | > 100 µM (inactive) | > 75.5 µM (inactive) | 40.2 µM (inactive) | 44.2 µM (inactive) | 55.5 µM (inactive) | > 100 µM (inactive) | > 100 µM (inactive) | 16.1 µM (inactive) | > 100 µM (inactive) | > 84.1 µM (inactive) | 3.48 µM (inactive) | > 100 µM (inactive) | 44.5 µM (inactive) | > 100 µM (inactive) | > 100 µM (inactive) | > 100 µM (inactive) | 28.9 µM (inactive) | 22.7 µM (inactive) | – | 18.9 µM (inactive)
CC(C)(C)c1ccc(-c2nc3ccccc3c(=O)o2)cc1 | 24.2 µM (inactive) | 40.6 µM (inactive) | 47.4 µM (inactive) | 24.5 µM (inactive) | 37.3 µM (inactive) | 54.8 µM (inactive) | > 100 µM (inactive) | – | 31.8 µM (inactive) | 22.8 µM (inactive) | 23.1 µM (inactive) | 33.3 µM (inactive) | 38.7 µM (inactive) | 30.7 µM (inactive) | 43.1 µM (inactive) | 29.1 µM (inactive) | 42 µM (inactive) | 70.1 µM (inactive) | 55.2 µM (inactive) | 28 µM (inactive)
